Laboratory results as given in US20250121076A1, “POLYPEPTIDE DRUG CONJUGATE HAVING NOVEL STRUCTURE AND APPLICATION THEREOF” (MEDSHINE DISCOVERY INC., priority 2021, published 2025).
Counter-ions that a name gives are not always drawn. Like-named read-outs stand apart in the source and are kept apart here. Starred links: 1 amine or outer side, 2 acyl side, 3 side chain; linkers in the order of their positions; H or OH if unused. Positions of bridges follow the written chain, without caps; N, C: chain ends. Non-standard residues stand in square brackets, D forms with d. Residues, ends and D or L forms follow the SMILES beside them. Chains are numbered I, II in the order given. *: point of attachment. TATA = O=C(CC[*:1])N1CN(C(=O)CC[*:2])CN(C(=O)CC[*:3])C1; Dolaproine = CO[C@@H]([C@@H]1CCCN1)[C@@H](C)C(=O)O; Dil = CC[C@H](C)[C@H](NC)[C@@H](CC(=O)O)OC; X2 = O=C(CCCC(=O)[*:2])NCCC(=O)[*:1]; PABC = O=C(OCc1ccc(N[*:1])cc1)[*:2]; X1 = C[C@@H](N*)[C@@H](O)c1ccccc1; Hyp = O=C(O)[C@@H]1C[C@@H](O)CN1; hArg = N=C(N)NCCCC[C@H](N)C(=O)O; Cit = NC(=O)NCCC[C@H](N)C(=O)O; NMeV = CN[C@H](C(=O)O)C(C)C; hCys = N[C@@H](CCS)C(=O)O; Sar = CNCC(=O)O

Target: T1, Human EphA2 (Homo sapiens, UniProt P29317)
T1 construct: purchased Sino Biological 13926-H08HD
T1 sequence (P29317 24-534 limits assumed): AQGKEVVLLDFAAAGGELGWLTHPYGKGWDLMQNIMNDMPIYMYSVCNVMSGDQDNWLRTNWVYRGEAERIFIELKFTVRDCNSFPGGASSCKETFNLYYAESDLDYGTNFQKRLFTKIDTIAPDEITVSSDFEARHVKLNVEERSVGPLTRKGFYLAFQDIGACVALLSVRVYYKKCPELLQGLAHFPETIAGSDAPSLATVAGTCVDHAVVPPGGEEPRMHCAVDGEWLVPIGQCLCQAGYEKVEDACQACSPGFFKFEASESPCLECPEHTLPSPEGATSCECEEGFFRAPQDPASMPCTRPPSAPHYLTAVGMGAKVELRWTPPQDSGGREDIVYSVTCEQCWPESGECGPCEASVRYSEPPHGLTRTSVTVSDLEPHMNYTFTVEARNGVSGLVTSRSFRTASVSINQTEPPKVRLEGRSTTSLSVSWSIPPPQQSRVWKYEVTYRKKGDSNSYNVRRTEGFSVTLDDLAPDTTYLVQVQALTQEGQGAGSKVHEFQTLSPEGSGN
Assay: Binding capacity test to EphA2 protein (SPR, Biacore 8K)
Experimental: To detect the affinity of the compound to be tested to the target protein EphA2 using the SPR method.
• Biacore 8K (GE Healthcare). • 96-well Plate (Cat #650101, greiner bio-one) • CM5 chip (Cat #BR-1005-30, GE Healthcare) • Amine Coupling Kit (Cat #BR-1000-50, GE Healthcare) EDC NHS 1 M ethanolamine. • 10 mM sodium acetate pH 4.5 (Cat #BR-1003-50, GE Healthcare) • DMSO (Cat #D4540, Sigma) • P20 (Cat #BR-1000-54, GE Healthcare). • PBS (Cat #BR-1006-72, GE Healthcare). • EphA2 (Cat #13926-H08HD, Sino Biological)
In this experiment, the amino coupling method was used. The target protein EphA2 was directly immobilized on the CM5 chip using Biacore 8K. The compound to be tested as an analyte was then diluted to a required concentration gradient with a buffer (10 mM PBS, pH 7.4, 137 mM NaCl, 2.7 mM KCl, 5% DMSO, and 0.05% P20) for multi-cycle kinetic detection, in which each cycle is formed by 180 seconds of sample injection and 180 seconds of dissociation, and then the next cycle was performed, to obtain kinetic analysis data on the affinity of the target protein EphA2 to the compound to be tested. The final data were subjected to Kinetics fitting analysis based on a 1:1 model using Biacore Insight Evaluation Software (V 2.0.15.12933).
1) Preparation of the buffer: 10 mM PBS, pH 7.4, 137 mM NaCl, 2.7 mM KCl, 5% DMSO, and 0.05% P20.
2) Activation of the CM5 chip: The CM5 chip was activated with 400 mM EDC and 100 mM NHS at a flow rate of 10 μL/min for 420 seconds.
3) Coupling of the target protein: The target protein was diluted to 10 μg/mL with 10 mM sodium acetate (pH 4.5) and coupled at a flow rate of 10 μL/min for 284 s. The 1 #, 2 #, and 3 #channels on the chip were used in the experiment, and the coupling results were 1639.9RU, 1747.8RU, and 1702.2RU, respectively.
4) Blocking of the CM5 chip: The CM5 chip was blocked with 1 M ethanolamine at a flow rate of 10 μL/min for 420 seconds.
5) Analyte concentration: The compound to be tested was diluted with the buffer. The compound to be tested was diluted from 100 nM to 0.78 nM in a 2-fold gradient.
6) Sample injection analysis: Each concentration of the working solution of the compound to be tested corresponded to one cycle, with a flow rate of 30 μL/min for binding for 180 seconds and dissociating for 180 seconds. The last cycle was a 5% DMSO solvent correction cycle. 7) All results were subjected to kinetics fitting analysis based on a 1:1 model.
The experimental data of five effective concentrations of the compounds of the present invention were selected for Kinetics fitting analysis based on a 1:1 model using Biacore Insight Evaluation Software (V 2.0.15.12933).

Row | Compound | Kd (read-out: Human EphA2 SPR kD, SPR, kinetics fit 1:1 model) [µM] | Kd [µM]
1 | CC[C@H](C)[C@@H]([C@@H](CC(=O)N1CCC[C@H]1[C@H](OC)[C@@H](C)C(=O)N[C@H](C)[C@@H](O)c1ccccc1)OC)N(C)C(=O)[C@@H](NC(=O)[C@H](C(C)C)N(C)C(=O)OCc1ccc(NC(=O)[C@H](CCCNC(N)=O)NC(=O)[C@@H](NC(=O)CCCC(=O)NCCC(=O)N(C)CC(=O)N(C)CC(=O)N(C)CC(=O)N(C)CC(=O)N(C)CC(=O)N(C)CC(=O)N(C)CC(=O)N(C)CC(=O)N(C)CC(=O)N(C)CC(=O)N[C@@H](C)C(=O)N[C@@H](CCCCNC(=N)N)C(=O)N[C@@H](CC(=O)O)C(=O)N[C@H]2CCSCCC(=O)N3CN4CN(C3)C(=O)CCSC[C@H](NC(=O)[C@H](CC(C)C)NC(=O)[C@@H]3CCCN3C(=O)[C@H](CC(N)=O)NC(=O)[C@H](C(C)C)NC(=O)[C@H](CC(C)C)NC(=O)[C@@H]3C[C@@H](O)CN3C2=O)C(=O)N[C@@H](CC(C)C)C(=O)N[C@@H](Cc2c[nH]cn2)C(=O)N2CCC[C@H]2C(=O)N[C@H](CC(=O)O)C(=O)N[C@@H](Cc2c[nH]c3ccccc23)C(=O)N[C@@H](CCCCNC(=N)N)C(=O)N[C@H](C(N)=O)CSCCC4=O)C(C)C)cc1)C(C)C [Acetate salt of PDC_2, MMAE-PABC-Cit-Val-Glutaryl-β-Ala-Sar10-Ala-hArg-Asp-hCys-Hyp-Leu-Val-Asn-Pro-Leu-Cys-Leu-His-Pro-dAsp-Trp-hArg-Cys-NH2, TATA] (I: [Sar][Sar][Sar][Sar][Sar][Sar][Sar][Sar][Sar][Sar]A[hArg]D[hCys][Hyp]LVNPLCLHP[dD]W[hArg]C-NH2 / II: V[Cit][PABC][NMeV]V[Dil][Dolaproine]-X1; linker I:14-I:21-I:28 via TATA; linker I:N-II:N via X2) | 0.033 | 
2 | CC[C@H](C)[C@@H]([C@@H](CC(=O)N1CCC[C@H]1[C@H](OC)[C@@H](C)C(=O)N[C@H](C)[C@@H](O)c1ccccc1)OC)N(C)C(=O)[C@@H](NC(=O)[C@H](C(C)C)N(C)C(=O)OCc1ccc(NC(=O)[C@H](CCCNC(N)=O)NC(=O)[C@@H](NC(=O)CCCC(=O)NCCC(=O)N(C)CC(=O)N(C)CC(=O)N(C)CC(=O)N(C)CC(=O)N(C)CC(=O)N(C)CC(=O)N(C)CC(=O)N(C)CC(=O)N(C)CC(=O)N(C)CC(=O)N[C@H]2CCCCNC(=O)C[C@@H](C(=O)N[C@H]3CSCCC(=O)N4CN5CN(C4)C(=O)CCSC[C@H](NC(=O)[C@H](CC(C)C)NC(=O)[C@@H]4CCCN4C(=O)[C@H](CC(N)=O)NC(=O)[C@H](C(C)C)NC(=O)[C@H](CC(C)C)NC(=O)[C@@H]4C[C@@H](O)CN4C3=O)C(=O)N[C@@H](CC(C)C)C(=O)N[C@@H](Cc3c[nH]cn3)C(=O)N3CCC[C@H]3C(=O)N[C@H](CC(=O)O)C(=O)N[C@@H](Cc3c[nH]c4ccccc34)C(=O)N[C@@H](CCCCNC(=N)N)C(=O)N[C@H](C(N)=O)CCSCCC5=O)NC(=O)[C@H](CCCCNC(=N)N)NC2=O)C(C)C)cc1)C(C)C [Acetate salt of PDC_5] (I: [Sar][Sar][Sar][Sar][Sar][Sar][Sar][Sar][Sar][Sar]K[hArg]DC[Hyp]LVNPLCLHP[dD]W[hArg][hCys]-NH2 / II: V[Cit][PABC][NMeV]V[Dil][Dolaproine]-X1; lactam I:11-I:13; linker I:14-I:21-I:28 via TATA; linker I:N-II:N via X2) |  | 0.00673
